Each structure is given as a SMILES string.

What is called melting point is the temperature of the solid-liquid transition. On to `CNc1nc(-c2ccccc2)c(-c2nc3ccccc3c(=O)n2-c2ccc(C(C)=O)cc2)s1`, for which the melting point lay in the range of 239 to 240 °C.
Then `CC(=C(C#N)C(N)=O)c1ccc(Cl)cc1`, with 165 to 167 °C.
Then `c1cn(Cc2ccc3c(c2)Cc2c(-c4ccsc4)n[nH]c2-3)cn1`, with 255 to 260 °C; and `CC(=O)N=c1sccn1CC(=O)c1cccc(NC(C)=O)c1`, with 224 to 226 °C; and `O=c1[nH]c(=S)c(C2c3ccccc3C=Cc3ccccc32)cn1-c1ccc(Sc2n[nH]c(C(F)(F)F)n2)nn1`, with 165 °C.
The figure for `N#Cc1cc(O)c2[nH]c(=O)oc2c1` is above 220 °C; for `CCNC(=O)Nc1nc2cc(-c3c(C)noc3C)cc(C(=O)NCC)n2n1` it is 238 to 241 °C; for `COc1ccc(N2C(=O)C(C)N(c3ccc(Cc4ccccc4)cc3)C2=S)cc1` (stereo unspecified) it is 122 °C.
As to `CCOC(=O)C(C#N)=Cc1ccc(NC(=O)CC[Si](C)(C)C)cc1`, the melting point came out at 157 °C.
Then `CN1CCN(S(=O)(=O)c2cccc(NC(=O)c3cnn4c(C(F)F)cc(-c5ccc(Cl)cc5)nc34)c2)CC1`, with 147 °C; and `Cc1ccc(NC(=O)c2ccc(CN3CCN(CCO)CC3)c(C(F)(F)F)c2)cc1Nc1nccc(-c2cncnc2)n1`, with 188 to 192 °C.
Then `O=C(Oc1ccccc1Br)c1cc(I)c[nH]1`, with 126 to 127 °C; and `CC(C)n1cc(C(=O)C(F)(F)F)c2ccc(C(F)(F)F)cc21`, with 92 to 93 °C.
The figure for `COc1cc(C)c(C(=O)c2ccc(OCc3nc(-c4ccccc4)oc3C)cc2)c(O)c1` is 171 to 172 °C.
In the case of `CC1(C(=O)NCc2cccs2)CC1`, the melting point fell in the range of 70 to 71 °C.
Then `C[C@]1(N2C(=O)c3cccc(Nc4ccc5c(c4)CCC5)c3C2=O)CCC(=O)NC1=O`, with 200 to 202 °C; and `O=[N+]([O-])C=C1SCCCN1Cc1cccnc1`, with 143 to 146 °C; and `COc1ccc(C(=O)Nc2c(Cl)cncc2Cl)cc1OC1CCCC1`, with 153 to 155 °C.
The figure for `O=C(Cc1noc2ccccc12)N[C@H]1CC[C@H](CCN2CCN(c3nccc4c3OCC4)CC2)CC1` is 211 °C; for `OCCCc1cc(-c2ccc(C(F)(F)F)cc2)no1` it is 59 to 60 °C; for `O=C(NCc1ccc(C(F)(F)F)cc1)c1cnc(Cl)nc1N1CCCC1` it is 170 to 171 °C.
The figure for `CC12CCC3c4ccc(OC(=O)c5ccccc5)cc4CCC3C1CCC2OC(=O)c1cccnc1` (stereo unspecified) is 151 to 154 °C; for `Cc1ccc(NC(=O)NCc2cccc3c2CN(C2CCC(=O)NC2=O)C3=O)cc1Cl` (stereo unspecified) it is above 260 °C.
In the case of `COC(=O)CCCCCc1nn(-c2ccc([N+](=O)[O-])cc2)c2c1CCCC2`, the melting point fell in the range of 60 to 61 °C.
The figure for `NC(=NO)c1ncn2c1[C@@H]1CCN1C(=O)c1c-2ccc(F)c1Cl` is 236 to 238 °C; for `COc1cc(C(=O)N2CCN(C(=O)/C=C(\c3ccc(F)cc3)c3cc(OC)c(OC)c(OC)c3)CC2)cc(OC)c1OC` it is 130 to 132 °C; for `CN1CCN2c3ccccc3C(O)c3ccccc3C2C1` (stereo unspecified) it is 137 to 138 °C.
The molecule `CC(=O)OC1COC(SCCCCCCOC2CCC3(C)C(=CCC4C3CCC3(C)C(C(C)CCCC(C)C)CCC43)C2)C(OC(C)=O)C1OC(C)=O` (stereo unspecified) displayed a melting point of 106 to 108 °C.
The figure for `COCC(=O)Nc1cc(NC(=O)COC)cc(C(=O)OC)c1` is 140 to 141 °C; for `Cc1ccc(C)n1-c1ccc2ccc3[nH]c(=O)c(=O)n(CC(=O)NCc4ccccc4)c3c2c1` it is 243 to 244 °C.
As for `COc1ccc(C(O)(c2ccc(OC)cc2)[C@@H](N)C2CCCCC2)cc1`, the melting point fell in the range of 146 to 147 °C.
The figure for `Oc1ccc2nc(SCCC=C(F)F)oc2c1` is 73.6 to 75.4 °C; for `CC1=C(C2C=CN(C(=O)OCC(Cl)(Cl)Cl)c3ccccc32)SCC(=O)N1` (stereo unspecified) it is 166 to 167 °C.
The molecule `O=C(Cn1nc(C(F)(F)F)cc1Cl)N1CCC(c2nc(C3=NOC(c4ccccc4)C3)cs2)CC1` (stereo unspecified) yielded a melting point of 128 to 131 °C.
Molecule `CCCCCCCCCCCCOC(=O)COCC(=O)O` yielded a melting point of 57 to 59 °C.
`Cc1ccc(Cl)c(C2CC(=O)c3c(C)ccnc3C2)c1` (stereo unspecified): the melting point was in the range of 123 to 124 °C.
Then `O=C(O)CCc1ccccc1Cc1ccc(Cl)cc1`, with 107 to 109 °C.
`CC(=O)c1ccc(NS(C)(=O)=O)c(Sc2ccc(F)cc2F)c1` showed a melting point of 114 to 117 °C.
The figure for `COc1ccc(-c2cnc3ccc(-c4nnc(SCc5cccc(C#N)c5)o4)cn23)cc1` is 143 to 144 °C; for `CC1(C)CCCN(C(=O)[C@H]2C[C@H](S(=O)(=O)c3ccccc3)[C@@H](c3ccccc3F)N2)C1` (racemic) it is 210 °C; for `Cn1cc(Cl)cnc1=O` it is 210 °C.
Then `COc1ccc(NC(C)=O)c(OC)c1-c1ccc(C[C@H](NC(=O)c2c(Cl)cccc2Cl)C(=O)O)cc1`, with 244 to 245 °C.
Molecule `CC(C)NC(=O)c1cccc(I)c1C(=O)Nc1cc(C(F)(F)F)nn1-c1ccccc1Cl` came in with a melting point of 226 to 228 °C.
On to `CCCOc1nsc(NC(=O)C(C)C)c1C(N)=O`, for which the melting point was 153 to 154 °C.
`Cc1nnc2n1-c1ccccc1NC2(C)C` returned a melting point of 177 to 178 °C.
The figure for `Cc1noc(-c2c(C)nc(C#Cc3ccccc3)n2C)n1` is 95 °C; for `CC(C)(C)N(Cc1ccccc1)CC(O)c1ccc(OCc2ccccc2)c2[nH]c(CO)cc12` (stereo unspecified) it is 136 °C.
Then `Cc1oc(-c2ccc(C(F)(F)F)cc2)nc1-c1ccc(Br)cc1`, with 82.8 °C; and `Cc1c(C(=O)O)oc2c(C(C)(C)C)cc(C(C)(C)C)c(O)c12`, with 241 to 243 °C.
The figure for `O=C(O)c1ccccc1CCCCc1ccccc1` is 82 to 84 °C; for `Cc1c(NC(=O)c2ccc(C3CCCCC3)cc2)ccc2cc(CN3CCCC3)cnc12` it is 178 to 179 °C.
Regarding `CCC1=Cc2cc3c(cc2C(c2ccc(N)cc2)=NN1C(C)=O)OCO3`, the melting point lay within 136 to 138 °C.
`N#CC1(C#N)C2C=CC(C2)C1(Cl)Cl` (stereo unspecified) came in with a melting point of 161 °C.
The figure for `COC(=O)C(Oc1cc(OCc2ccccc2)ccc1C#N)c1ccccc1C` (racemic) is 134 to 136 °C; for `c1cc(C2=NOCCS2)ccn1` it is 80 to 82 °C.
Then `Cc1ccccc1C1CC(=O)c2c(C(F)(F)F)coc2C1` (stereo unspecified), with 105 to 107 °C; and `Cc1[nH]c(=S)n(Nc2cccc(Cl)c2)c1C(=O)O`, with 166 to 168 °C.
In turn, `Nc1cccc(C(=O)Nc2cccc3cc(Br)cnc23)c1` registered a melting point of 209 to 211 °C.
The figure for `Cc1sc2ncc(CO)n2c1C` is 166 to 167 °C; for `COc1ccc(Nc2nc(N)nc3c(OC)cccc23)c(C)c1` it is 185 to 187 °C; for `CCCCCC(=O)NC(=O)N1CC1C#N` (stereo unspecified) it is 143 to 144 °C.
The figure for `O=C1[C@H]2CCC[C@H]2N(C(=O)CBr)c2ccccc2N1Cc1ccccc1` (relative stereo) is 177 to 179 °C; for `CN1CCN(c2ccc3ccccc3n2)CC1` it is 110 to 112 °C.
Take `C=Cc1cc([C@@H](C)NC(=O)C=Cc2ccc(C(C)(C)C)cc2)cc(F)c1NS(C)(=O)=O`: the melting point lay within 127 to 129 °C.
The figure for `Cc1nc2ccc(Cl)cc2c(=O)n1C1CCC(=O)NC1=O` (stereo unspecified) is 276 to 278 °C.
Then `CCCCCCCCCCOc1ccc(NC(=O)c2ccc(O)cc2)cc1OCCCCCCCCCC`, with 137 °C.
Then `NC(=O)c1[nH]c2ccccc2c1Cl`, with 191 to 192 °C; and `ClCc1nc2nc(Cl)c(Cl)nc2s1`, with 126 to 128 °C; and `CC(O)c1c[nH]c(-c2ccccc2)n1` (stereo unspecified), with 197 to 198 °C.
The molecule `CC(C)NC(=S)N1CCc2c(ncn2C)C1` showed a melting point of 200 °C.
The figure for `CCOC(=O)c1c(O)c2ccc(F)cc2c(=O)n1CC1CC1` is 88 to 89 °C; for `Clc1ccc(C2CN3CCN=C3c3ccccc32)cc1` (single isomer, unassigned; (-)) it is 184 °C; for `C=CCC(C(=O)O)(c1ccccc1)c1ccccc1` it is 134 to 137 °C.
Then `CC(C)(C)c1cc(SC2CCOC2=O)cc(C(C)(C)C)c1O` (stereo unspecified), with 98 °C; and `O=C(O)CC1CCCCC1Oc1ccc(C(=O)c2ccc(Cl)cc2)cc1` (stereo unspecified), with 130 to 132 °C.
The figure for `BrC1Cn2cccc2Sc2ccccc21` (stereo unspecified) is 115 to 116 °C; for `c1ccn(Nc2ccncn2)c1` it is 134 to 136 °C; for `CC(=O)CN1CCc2c(c(=O)oc3cc(C(C)C)ccc23)C1` it is 76 to 79 °C.
With `COc1ccc(S(=O)(=O)Nc2ccccc2C=Cc2cccnc2)cc1`, the melting point lay within 131 to 132 °C.
The figure for `COc1ccc(Cc2cnc(NCCSCc3csc(CN(C)C)n3)[nH]c2=O)cn1` is 137 to 138 °C; for `COC(=O)c1ccc2c(c1)C(=O)C(C)C(c1ccccc1)=N2` (stereo unspecified) it is above 300 °C.
As for `Cc1ccsc1-c1cncc(Br)c1`, the melting point lay within 58 to 59 °C.
Then `COC(=O)C1=Cc2cc(-c3ccc(Cl)cc3)ccc2S(=O)(=O)CC1`, with 168 to 170 °C.
The figure for `CS(=O)c1nc2ccc(C(F)(F)F)cc2[nH]1` (stereo unspecified) is 135 °C; for `c1cc(-c2n[nH]c3c2Cc2cc(CN4CCOCC4)ccc2-3)cs1` it is 196 to 198 °C.
Turning to `COc1ccc(C2COCCOC2)c2sc(NC(=O)c3ccnc(CN4CCCC4)c3)nc12`, the melting point was 108 to 111 °C.
Then `CCCCCCCCCCCCCCOCc1ccc(C(C)=O)o1`, with 61 to 62 °C; and `COC(=O)Cn1c(C(=O)OCc2ccccc2)cc2cc(C)cc(C)c21`, with 91 to 93 °C.
The figure for `CCNC(=O)c1ccc(-n2nnc(C(=O)NC3CC3)c2CS(=O)(=O)c2ccccc2)cc1` is 169 to 172 °C; for `C[C@@]1(Cn2cc([N+](=O)[O-])nc2Br)CO1` it is 93 to 94 °C.
On to `CNC(=O)C(Cc1ccc(OC)cc1)NC(=O)C(C)(CC(C)C)c1cccc(C(F)(F)F)c1S` (stereo unspecified), for which the melting point lay in the range of 88 to 102 °C.

The values above are taken from a melting point compilation (Tetko et al.; mined from patent text by program, amines drawn as free bases though some values may be those of a salt).
